Key:
common ragweed (AMBEL) = experiment: Test 26 field trial, postemergence; type: in vivo, Ambrosia artemisiifolia; set-up: scale not given here
Excerpt: (§1) Corn seeds (hybrid ‘Pioneer 31G96’) were planted in mid spring season, 3.8 cm deep in a silt loam soil having 2% organic matter and a pH of 6.6. Plots were 6.1 m long by 3.0 m wide with rows spaced 76 cm apart. Seeds were spaced 15 cm apart within the rows. The field was managed using conventional tillage practices. […] All treatments also included a surfactant. […] Some of the weed species could not be evaluated at every timing. […] Results are the means of the three replicates.

[1] = test system: Pennsylvania smartweed (POLPY); experiment: Test 26 field trial, postemergence; type: in vivo, Polygonum pensylvanicum
Excerpt: as §1

giant foxtail (SETFA) = experiment: Test 26 field trial, postemergence; type: in vivo, Setaria faberi; set-up: scale not given here
Excerpt: as §1

[2] = test system: common lambsquarters (CHEAL); experiment: Test 26 field trial, postemergence; type: in vivo, Chenopodium album; set-up: scale not given here
Excerpt: as §1

kochia (KCHSC) = experiment: Test 27 field trial, postemergence; type: in vivo, Kochia scoparia; set-up: scale not given here; conditions: thifensulfuron-methyl 10 g a.i./ha
Excerpt: (§2) Wheat seeds (cv. ‘Custer’) were planted in late fall season in a clay loam soil. Plots were 9 m long by 1.8 m wide. The field was managed using conventional tillage practices. […] All treatments also included a surfactant. […] Results are the means of the three replicates.

winter wheat (TRZAW) = experiment: Test 27 field trial, postemergence; type: in vivo, Triticum aestivum; conditions: cv. Custer, Triticum aestivum (winter wheat), in vivo
Excerpt: as §2

jimsonweed (DATST) = experiment: Test 26 field trial, postemergence; type: in vivo, Datura stramonium; conditions: 28 DAA
Excerpt: as §1

velvetleaf (ABUTH) = experiment: Test 26 field trial, postemergence; type: in vivo, Abutilon theophrasti; set-up: scale not given here
Excerpt: as §1

[3] = test system: ivyleaf morningglory (IPOHE); experiment: Test 26 field trial, postemergence; type: in vivo, Ipomoea hederacea; set-up: scale not given here
Excerpt: as §1

giant ragweed (AMBTR) = experiment: Test 26 field trial, postemergence; type: in vivo, Ambrosia trifida
Excerpt: as §1

corn (ZEAMD) = experiment: Test 26 field trial, postemergence; type: in vivo, Zea mays ssp. indentata; conditions: hybrid Pioneer 31G96, Zea mays ssp. indentata (corn), in vivo
Excerpt: as §1

COC(=O)c1sccc1S(=O)(=O)NC(=O)Nc1nc(C)nc(OC)n1 [Thifensulfuron-methyl]
AMBEL Obs (common ragweed (AMBEL); 14 DAA, 2 g a.i./ha): 55 | AMBEL Obs (common ragweed (AMBEL); 14 DAA, 4 g a.i./ha): 72 | AMBEL Obs (common ragweed (AMBEL); 14 DAA, 8 g a.i./ha): 76 | AMBEL Obs (common ragweed (AMBEL); 28 DAA, 2 g a.i./ha): 23 | AMBEL Obs (common ragweed (AMBEL); 28 DAA, 4 g a.i./ha): 53 | AMBEL Obs (common ragweed (AMBEL); 28 DAA, 8 g a.i./ha): 43 | AMBEL Obs (common ragweed (AMBEL); 56 DAA, 2 g a.i./ha): 0 | AMBEL Obs (common ragweed (AMBEL); 56 DAA, 4 g a.i./ha): 17 | AMBEL Obs (common ragweed (AMBEL); 56 DAA, 8 g a.i./ha): 25 | POLPY Obs ([1]; 14 DAA, 8 g a.i./ha): 0 | POLPY Obs ([1]; 28 DAA, 2 g a.i./ha): 73 | POLPY Obs ([1]; 28 DAA, 4 g a.i./ha): 100 | POLPY Obs ([1]; 28 DAA, 8 g a.i./ha): 100 | SETFA Obs (giant foxtail (SETFA); 28 DAA, 2 g a.i./ha): 87 | SETFA Obs (giant foxtail (SETFA); 28 DAA, 4 g a.i./ha): 88 | SETFA Obs (giant foxtail (SETFA); 28 DAA, 8 g a.i./ha): 82 | SETFA Obs (giant foxtail (SETFA); 56 DAA, 2 g a.i./ha): 0 | SETFA Obs (giant foxtail (SETFA); 56 DAA, 4 g a.i./ha): 23 | SETFA Obs (giant foxtail (SETFA); 56 DAA, 8 g a.i./ha): 13 | CHEAL Obs ([2]; 14 DAA, 2 g a.i./ha): 65 | CHEAL Obs ([2]; 14 DAA, 4 g a.i./ha): 83 | CHEAL Obs ([2]; 14 DAA, 8 g a.i./ha): 80 | CHEAL Obs ([2]; 28 DAA, 2 g a.i./ha): 90 | CHEAL Obs ([2]; 28 DAA, 4 g a.i./ha): 93 | CHEAL Obs ([2]; 28 DAA, 8 g a.i./ha): 98 | CHEAL Obs ([2]; 56 DAA, 2 g a.i./ha): 27 | CHEAL Obs ([2]; 56 DAA, 4 g a.i./ha): 50 | CHEAL Obs ([2]; 56 DAA, 8 g a.i./ha): 93 | KCHSC Obs (kochia (KCHSC); 16 DAA): 0 | KCHSC Obs (kochia (KCHSC); 28 DAA): 0 | KCHSC Obs (kochia (KCHSC); 49 DAA): 0 | TRZAW Obs (winter wheat (TRZAW); 16 days after application): 0 | TRZAW Obs (winter wheat (TRZAW); 28 days after application): 0 | TRZAW Obs (winter wheat (TRZAW); 49 days after application): 0 | DATST Obs (jimsonweed (DATST); 2 g a.i./ha): 40 | DATST Obs (jimsonweed (DATST); 4 g a.i./ha): 87 | DATST Obs (jimsonweed (DATST); 8 g a.i./ha): 83 | ABUTH Obs (velvetleaf (ABUTH); 14 DAA, 2 g a.i./ha): 53 | ABUTH Obs (velvetleaf (ABUTH); 14 DAA, 4 g a.i./ha): 60 | ABUTH Obs (velvetleaf (ABUTH); 14 DAA, 8 g a.i./ha): 55 | ABUTH Obs (velvetleaf (ABUTH); 28 DAA, 2 g a.i./ha): 75 | ABUTH Obs (velvetleaf (ABUTH); 28 DAA, 4 g a.i./ha): 79 | ABUTH Obs (velvetleaf (ABUTH); 28 DAA, 8 g a.i./ha): 87 | ABUTH Obs (velvetleaf (ABUTH); 56 DAA, 2 g a.i./ha): 33 | ABUTH Obs (velvetleaf (ABUTH); 56 DAA, 4 g a.i./ha): 30 | ABUTH Obs (velvetleaf (ABUTH); 56 DAA, 8 g a.i./ha): 73 | IPOHE Obs ([3]; 14 DAA, 2 g a.i./ha): 57 | IPOHE Obs ([3]; 14 DAA, 4 g a.i./ha): 72 | IPOHE Obs ([3]; 14 DAA, 8 g a.i./ha): 73 | IPOHE Obs ([3]; 28 DAA, 2 g a.i./ha): 17 | IPOHE Obs ([3]; 28 DAA, 4 g a.i./ha): 20 | IPOHE Obs ([3]; 28 DAA, 8 g a.i./ha): 45 | IPOHE Obs ([3]; 56 DAA, 2 g a.i./ha): 0 | IPOHE Obs ([3]; 56 DAA, 4 g a.i./ha): 0 | IPOHE Obs ([3]; 56 DAA, 8 g a.i./ha): 20 | AMBTR Obs (giant ragweed (AMBTR); 14 DAA, 2 g a.i./ha): 75 | AMBTR Obs (giant ragweed (AMBTR); 28 DAA, 2 g a.i./ha): 5 | AMBTR Obs (giant ragweed (AMBTR); 28 DAA, 4 g a.i./ha): 5 | ZEAMD Obs (corn (ZEAMD); 14 days after application): 0 | ZEAMD Obs (corn (ZEAMD); 56 days after application): 0
